Test results reported in ChEMBL document CHEMBL1201862, “PubChem BioAssay data set” (2004).
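Step 1: Grow cells in 96-well plates. Step 2: Expose to compound for 48 hours at 5 concentrations. Step 3: Interpolate endpoints linearly; if unreached, use highest concentration. GI50 is the concentration that inhibits growth by half.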 The source made the active and inactive calls. No stated cut-off is given here; in the data, active = GI50 up to about 1.1 µM and inactive = higher.

What was measured:
Experiment in all cases: NCI tumour cell line growth inhibition, 48 h
SN12C = test system: SN12C
UACC-62 = test system: UACC-62
HCT-116 = test system: HCT-116
HOP-18 = test system: HOP-18
EKVX = test system: EKVX
UO-31 = test system: UO-31
RXF 631 = test system: RXF 631
OVCAR-4 = test system: OVCAR-4
KM12 = test system: KM12
DMS-273 = test system: DMS-273
RPMI-8226 = test system: RPMI-8226
OVCAR-5 = test system: OVCAR-5
SK-MEL-2 = test system: SK-MEL-2
LOX IMVI = test system: LOX IMVI
Malme-3M = test system: Malme-3M
RXF 393 = test system: RXF 393
DLD-1 = test system: DLD-1
SW-620 = test system: SW-620
A498 = test system: A498
SF-268 = test system: SF-268
SF-295 = test system: SF-295
KM-20L2 = test system: KM-20L2
OVCAR-8 = test system: OVCAR-8
SK-MEL-28 = test system: SK-MEL-28
SK-OV-3 = test system: SK-OV-3
A549 = test system: A549
COLO 205 = test system: COLO 205
786-0 = test system: 786-0
IGROV-1 = test system: IGROV-1
SK-MEL-5 = test system: SK-MEL-5
M14 = test system: M14
HCT-15 = test system: HCT-15
HL-60 = test system: HL-60
TK-10 = test system: TK-10
NCI-H460 = test system: NCI-H460
XF498 = test system: XF498
NCI-H226 = test system: NCI-H226
HOP-62 = test system: HOP-62
CCRF-CEM = test system: CCRF-CEM
CAKI-1 = test system: CAKI-1
SNB-78 = test system: SNB-78
HOP-92 = test system: HOP-92
K562 = test system: K562
DMS-114 = test system: DMS-114
HCC 2998 = test system: HCC 2998
SR = test system: SR
M19-MEL = test system: M19-MEL
UACC-257 = test system: UACC-257
LXFL 529 = test system: LXFL 529
HT-29 = test system: HT-29
OVCAR-3 = test system: OVCAR-3
NCI-H522 = test system: NCI-H522
SNB-75 = test system: SNB-75
MOLT-4 = test system: MOLT-4
ACHN = test system: ACHN
SNB-19 = test system: SNB-19
U-251 = test system: U-251
SF-539 = test system: SF-539
NCI-H23 = test system: NCI-H23

For `O=c1/c(=C/c2ccccc2[N+](=O)[O-])sc2nc3ccccc3n12`, the GI50 (SN12C) was 44.1 µM (inactive), the GI50 (UACC-62) was 64.7 µM (inactive) and the GI50 (HCT-116) was 21.7 µM (inactive). The GI50 (HOP-18) was 44.6 µM (inactive), the GI50 (EKVX) was > 100 µM (inactive) and the GI50 (UO-31) was > 46.5 µM (inactive). For the same molecule, the GI50 (RXF 631) was 17.5 µM (inactive), the GI50 (OVCAR-4) was > 46.5 µM (inactive) and the GI50 (KM12) was 34.7 µM (inactive). For the same molecule, the GI50 (DMS-273) was 20 µM (inactive), the GI50 (RPMI-8226) was 12.6 µM (inactive) and the GI50 (OVCAR-5) was > 46.5 µM (inactive). For the same molecule, the GI50 (SK-MEL-2) was 20.4 µM (inactive), the GI50 (LOX IMVI) was 17.1 µM (inactive) and the GI50 (Malme-3M) was 42.2 µM (inactive). For the same molecule, the GI50 (RXF 393) was 28.3 µM (inactive), the GI50 (DLD-1) was 27.7 µM (inactive) and the GI50 (SW-620) was 24.1 µM (inactive). The GI50 (A498) was 17.3 µM (inactive), the GI50 (SF-268) was 29.9 µM (inactive) and the GI50 (SF-295) was 18.8 µM (inactive). The GI50 (KM-20L2) was > 100 µM (inactive), the GI50 (OVCAR-8) was 38.9 µM (inactive) and the GI50 (SK-MEL-28) was > 46.5 µM (inactive). The GI50 (SK-OV-3) was > 31.6 µM (inactive), the GI50 (A549) was 30.8 µM (inactive) and the GI50 (COLO 205) was 26.6 µM (inactive). The GI50 (786-0) was 24.5 µM (inactive), the GI50 (IGROV-1) was 30.5 µM (inactive) and the GI50 (SK-MEL-5) was 41.6 µM (inactive). For the same molecule, the GI50 (M14) was 39.7 µM (inactive), the GI50 (HCT-15) was 17 µM and the GI50 (HL-60) was 41.1 µM (inactive). For the same molecule, the GI50 (TK-10) was > 46.5 µM (inactive), the GI50 (NCI-H460) was 37.8 µM (inactive) and the GI50 (XF498) was 16 µM (inactive). The GI50 (NCI-H226) was 22.9 µM (inactive), the GI50 (HOP-62) was 42.4 µM (inactive) and the GI50 (CCRF-CEM) was 13 µM (inactive). For the same molecule, the GI50 (CAKI-1) was > 73.1 µM (inactive), the GI50 (SNB-78) was 23.1 µM (inactive) and the GI50 (HOP-92) was 32.1 µM (inactive). For the same molecule, the GI50 (K562) was 40.8 µM (inactive), the GI50 (DMS-114) was 16.3 µM (inactive) and the GI50 (HCC 2998) was 30.8 µM (inactive). For the same molecule, the GI50 (SR) was 12.2 µM (inactive), the GI50 (M19-MEL) was 28.6 µM (inactive) and the GI50 (UACC-257) was 34.8 µM (inactive). The GI50 (LXFL 529) was 33.4 µM (inactive), the GI50 (HT-29) was > 46.5 µM (inactive) and the GI50 (OVCAR-3) was > 31.6 µM (inactive). For the same molecule, the GI50 (NCI-H522) was 35.4 µM (inactive), the GI50 (SNB-75) was 24.5 µM (inactive) and the GI50 (MOLT-4) was > 46.1 µM (inactive). The GI50 (ACHN) was > 46.5 µM (inactive), the GI50 (SNB-19) was 21.9 µM (inactive) and the GI50 (U-251) was 19.9 µM (inactive). The GI50 (SF-539) was 19.5 µM (inactive) and the GI50 (NCI-H23) was 28.6 µM (inactive).

With `CC(=O)OCC1OC(n2c(=O)n(-c3ccccc3)c(=O)c3cc(Br)cc(Br)c32)C(OC(C)=O)C(OC(C)=O)C1OC(C)=O` (configuration not stated) the GI50 (SN12C) was > 100 µM (inactive), the GI50 (UACC-62) was > 100 µM (inactive) and the GI50 (HCT-116) was > 100 µM (inactive). The GI50 (HOP-18) was > 100 µM (inactive), the GI50 (EKVX) was > 100 µM (inactive) and the GI50 (UO-31) was > 100 µM (inactive). For the same molecule, the GI50 (RXF 631) was > 100 µM (inactive), the GI50 (OVCAR-4) was 7.5 µM (inactive) and the GI50 (KM12) was > 100 µM (inactive). For the same molecule, the GI50 (DMS-273) was > 100 µM (inactive), the GI50 (RPMI-8226) was > 100 µM (inactive) and the GI50 (OVCAR-5) was > 100 µM (inactive). For the same molecule, the GI50 (SK-MEL-2) was > 100 µM (inactive), the GI50 (LOX IMVI) was > 100 µM (inactive) and the GI50 (Malme-3M) was > 100 µM (inactive). The GI50 (RXF 393) was 48.1 µM (inactive), the GI50 (DLD-1) was > 100 µM (inactive) and the GI50 (SW-620) was > 100 µM (inactive). For the same molecule, the GI50 (A498) was > 100 µM (inactive), the GI50 (SF-268) was > 100 µM (inactive) and the GI50 (SF-295) was 12 µM (inactive). For the same molecule, the GI50 (KM-20L2) was 8.95 µM (inactive), the GI50 (OVCAR-8) was > 100 µM (inactive) and the GI50 (SK-MEL-28) was > 100 µM (inactive). The GI50 (SK-OV-3) was > 100 µM (inactive), the GI50 (A549) was > 100 µM (inactive) and the GI50 (COLO 205) was > 100 µM (inactive). The GI50 (786-0) was > 100 µM (inactive), the GI50 (IGROV-1) was > 100 µM (inactive) and the GI50 (SK-MEL-5) was > 100 µM (inactive). For the same molecule, the GI50 (M14) was > 100 µM (inactive), the GI50 (HCT-15) was greater than 100 µM and the GI50 (HL-60) was > 100 µM (inactive). For the same molecule, the GI50 (TK-10) was > 100 µM (inactive), the GI50 (NCI-H460) was > 100 µM (inactive) and the GI50 (XF498) was > 100 µM (inactive). The GI50 (NCI-H226) was > 100 µM (inactive), the GI50 (HOP-62) was 88.7 µM (inactive) and the GI50 (CCRF-CEM) was > 100 µM (inactive). For the same molecule, the GI50 (CAKI-1) was 2.56 µM (inactive), the GI50 (SNB-78) was > 100 µM (inactive) and the GI50 (HOP-92) was > 100 µM (inactive). For the same molecule, the GI50 (K562) was > 100 µM (inactive), the GI50 (DMS-114) was > 100 µM (inactive) and the GI50 (HCC 2998) was > 100 µM (inactive). The GI50 (M19-MEL) was > 100 µM (inactive), the GI50 (UACC-257) was > 100 µM (inactive) and the GI50 (LXFL 529) was > 100 µM (inactive). The GI50 (HT-29) was > 100 µM (inactive), the GI50 (OVCAR-3) was > 100 µM (inactive) and the GI50 (NCI-H522) was > 100 µM (inactive). For the same molecule, the GI50 (SNB-75) was 74.1 µM (inactive), the GI50 (MOLT-4) was > 100 µM (inactive) and the GI50 (ACHN) was > 100 µM (inactive). The GI50 (SNB-19) was > 100 µM (inactive), the GI50 (U-251) was 71 µM (inactive) and the GI50 (SF-539) was > 100 µM (inactive). For the same molecule, the GI50 (NCI-H23) was > 100 µM (inactive).
